In patent publication US20120146009A1, “NOVEL COMPOUND, FIELD-EFFECTIVE TRANSISTOR, SOLAR CELL, METHOD FOR PRODUCING SAID COMPOUND, FIELD-EFFECTIVE TRANSISTOR, AND SOLAR CELL, COMPOSITION FOR ORGANIC SEMICONDUCTOR LAYER, AND COMPOSITION FOR P-TYPE SEMICONDUCTOR LAYER” (Sharp Kabushiki Kaisha, priority 2009, published 2012):
Read-outs that look alike come from different tables or passages of the source. Values belong to the molecule of their own block, whether it stands above or below them.

Tests used:
[1] = Properties of the isolated crystal in the atmosphere; type: physicochemical; details: yellow crystal
Protocol: Into an anhydrous DMF (15 ml) solution of Intermediate 1 (0.42 g, 1.5 mmol), sodium hydride (60%, 0.13 g, 3.1 mmol) was added little by little. The resultant solution was left at room temperature for 2 hours. After that, 1-bromohexane (0.5 g, 3 mmol) was added to the solution, and the solution was agitated for further 2 hours. A solvent was removed away under reduced pressure, and a residue was extracted with methylene chloride. The residue from which the solvent was distilled away was recrystallized from hexane so that 0.28 g of Compound 1 was obtained (yield: 41%).

[2] = Stability against aerial oxidation (absorption intensity of solution in air-saturated methylene chloride, dark place); type: physicochemical; details: immediately after preparation to 1 week
Protocol: Next, stability of Compound 1 against aerial oxidation was evaluated. A solution of Compound 1 was prepared with the use of air-saturated methylene chloride as a solvent, and was left in a dark place. The absorption spectrum was measured during a time period from immediately after the preparation to 1 week after the preparation, so as to trace how an absorption intensity of the solution of Compound 1 was changed during the above time period (see Reference Document 1 described above).

[3] = Solubility in solvent; type: physicochemical
[4] = HOMO level (ionization potential) by photoelectric spectroscopy in the atmosphere; type: physicochemical
Protocol: (§1) An absorption spectrum (absorption peak wavelength λmax, molar absorbance coefficient c) of Compound 1 thus synthesized was measured. Further, a HOMO level (ionization potential) of Compound 1 was measured by photoelectric spectroscopy in the atmosphere (SC-2).
(§2) Note that, for the result of pentacene shown in Table 2, the absorption spectrum described in Reference Document 1 (J. Am. Chem. Soc. 2007, 129, 2225) was used, and the HOMO level described in Reference Document 2 (Jpn. J. Appl. Phys. 2005, 44, 561) was used.

[5] = Absorption spectrum in CH2Cl2; type: physicochemical
Protocol: as §1, §2

[6] = background statement; cited from earlier work
[7] = same condition, left for 24 hours, Reference Document 1; cited from earlier work
[8] = from Reference Document 1; cited from earlier work
[9] = from Reference Document 2; cited from earlier work

Hydroscopic property [1]: no hydroscopic property | Change in absorption intensity of solution [2]: no change in absorption intensity | Resolvability with respect to a solvent [3]: excellent resolvability | Photoelectric spectroscopy HOMO [4]: −4.89 eV | Absorption spectrum λ max ([5]; in CH2CL2): 422 nm | Absorption spectrum log ε ([5]; in CH2CL2, at λ max): (log ε = 4.58)
Structure (SMILES): CCCCCCN1c2cc3ccccc3cc2N(CCCCCC)c2cc3ccccc3cc21 [Compound 1]
Stability in the atmosphere [1]: stable compound without any deterioration in the atmosphere

Structure (SMILES): c1ccc2cc3c(cc2c1)Nc1cc2ccccc2cc1N3 [DHDAP, dihydrodiazapentacene]
Solubility [6]: low in solubility

Structure (SMILES): c1ccc2cc3cc4cc5ccccc5cc4cc3cc2c1 [Pentacene, pentacene]
Change in absorption intensity of solution [7]: absorption intensity was substantially eliminated | Absorption spectrum λ max [8]: 575 nm | Photoelectric spectroscopy HOMO [9]: −5.0 eV
